Results reported in US9850283B2, “Macrocyclic inhibitors of the PD-1/PD-L1 and CD80(B7-1)/PD-L1 protein/protein interactions” (BRISTOL-MYERS SQUIBB COMPANY, priority 2013, dated 2017).
Like-named read-outs stand apart in the source and are kept apart here. Positions of bridges follow the written chain, without caps; N, C: chain ends. Non-standard residues stand in square brackets, D forms with d. Residues, ends and D or L forms follow the SMILES beside them. Phe(3,4,5-F3) = N[C@@H](Cc1cc(F)c(F)c(F)c1)C(=O)O; Phe(4-CH2NH2) = NCc1ccc(C[C@H](N)C(=O)O)cc1; Pro(4R-NH2) = N[C@H]1CN[C@H](C(=O)O)C1; d(cisHyp) = O=C(O)[C@H]1C[C@@H](O)CN1; NMeF = CN[C@@H](Cc1ccccc1)C(=O)O; dNMeE = CN[C@H](CCC(=O)O)C(=O)O; NMeNle = CCCC[C@H](NC)C(=O)O; dPip = O=C(O)[C@H]1CCCCN1; dAze = O=C(O)[C@H]1CCN1; Dap = NC[C@H](N)C(=O)O

Assays:
[1] = biological target: T1, LK35.2-hPD-L1 cells / PE-labeled PD-1-Ig (Homo sapiens, UniProt Q9NZQ7); test: LK35.2-hPD-L1 cell binding high-content screening assay; format: cell-based; details: cluster symbol, read-out: CBA IC50 cluster
T1 construct: expressed in transfected cells; host or cells: LK35.2 mouse B cell line
Outline: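 Mouse LK35.2 B cells stably over-expressing human PD-L1, cultured overnight, treated with compound plus PE-labeled human PD-1-Ig (1 nM final) in RPMI/10% FCS for 1 h at 37 °C. After washing, bound fluorescence quantified by high-content imaging.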

Human PD-L1/PD-1 = biological target: T2, Human PD-L1/PD-1 (Homo sapiens, UniProt Q9NZQ7); test: HTRF PD-1-Ig/PD-L1-His binding assay (human PD-L1); details: cluster symbol; read-out: HTRF IC50 cluster
T2 construct: made in house; host or cells: HEK293T
Outline: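 Ig- and His-fused extracellular PD-1/PD-L1 binding in BSA/Tween-20 dPBS. HTRF with Eu anti-Ig (1 nM final) and APC anti-His (20 nM final).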

[2] = cell line of CBA not given (LK35.2-hPD-L1 or 293T-hPD-L1)
[3] = cell binding assay, cell line not given

T2 sequence (Q9NZQ7 with tags, fused parts or gaps): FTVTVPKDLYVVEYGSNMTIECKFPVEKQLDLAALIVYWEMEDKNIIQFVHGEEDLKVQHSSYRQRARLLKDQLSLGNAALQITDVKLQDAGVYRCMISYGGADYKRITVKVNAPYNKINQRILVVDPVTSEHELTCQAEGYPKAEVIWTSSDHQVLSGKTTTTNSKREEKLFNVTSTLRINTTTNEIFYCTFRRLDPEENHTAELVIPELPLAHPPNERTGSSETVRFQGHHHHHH
T1 sequence (Q9NZQ7 19-290): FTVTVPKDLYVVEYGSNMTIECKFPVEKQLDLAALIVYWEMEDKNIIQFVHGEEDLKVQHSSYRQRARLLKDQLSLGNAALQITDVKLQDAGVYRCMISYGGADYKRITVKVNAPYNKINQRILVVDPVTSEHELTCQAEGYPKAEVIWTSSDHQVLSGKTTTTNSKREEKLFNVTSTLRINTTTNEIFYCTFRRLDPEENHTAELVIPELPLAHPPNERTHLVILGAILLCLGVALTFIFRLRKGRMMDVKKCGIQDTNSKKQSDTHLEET

SMILES: CCCC[C@H]1C(=O)N2CCC[C@@H]2C(=O)N[C@@H](CC(=O)O)C(=O)N[C@@H](C(C)C)C(=O)N(C)[C@@H](Cc2ccccc2)C(=O)N[C@@H](CCCN)C(=O)N2CCC[C@@H]2C(=O)N[C@@H](Cc2c[nH]c3ccccc23)C(=O)N[C@@H](Cc2ccc(O)cc2)C(=O)N[C@@H](CC(C)C)C(=O)N[C@H](C(=O)NCC(N)=O)CSCC(=O)N[C@@H](Cc2ccccc2)C(=O)N(C)[C@@H](Cc2ccccc2)C(=O)N1C [Example 3188] (HELM PEPTIDE1{[O=C(C[*:3])[*:2]].F.[meF].[CCCC[C@@H](C(=O)[*:2])N(C)[*:1]].[dP].D.V.[meF].[Orn].[dP].W.Y.L.C.G.[am]}$PEPTIDE1,PEPTIDE1,1:R3-14:R3$$$V2.0)
- IC50 [1, 2]: 0.158 to 4.71 nM
- IC50 (Human PD-L1/PD-1): 6.76 to 30.3 nM

SMILES: CCCC[C@H]1C(=O)N2CCC[C@@H]2C(=O)N[C@@H](CCCCN)C(=O)N[C@@H](C(C)C)C(=O)N(C)[C@@H](Cc2ccccc2)C(=O)N[C@@H](CCC(=O)O)C(=O)N2CCC[C@@H]2C(=O)N[C@@H](Cc2c[nH]c3ccccc23)C(=O)N[C@@H](Cc2ccc(O)cc2)C(=O)N[C@@H](CC(C)C)C(=O)N[C@H](C(=O)NCC(N)=O)CSCC(=O)N[C@@H](Cc2ccccc2)C(=O)N(C)[C@@H](Cc2ccccc2)C(=O)N1C [Example 3190] (HELM PEPTIDE1{[O=C(C[*:3])[*:2]].F.[meF].[CCCC[C@@H](C(=O)[*:2])N(C)[*:1]].[dP].K.V.[meF].E.[dP].W.Y.L.C.G.[am]}$PEPTIDE1,PEPTIDE1,1:R3-14:R3$$$V2.0)
- IC50 [1, 2]: 0.158 to 4.71 nM
- IC50 (Human PD-L1/PD-1): 0.385 to 6.74 nM

SMILES: CCCC[C@H]1C(=O)N2CCC[C@@H]2C(=O)N[C@@H](CCC(=O)O)C(=O)N[C@@H](C(C)C)C(=O)N(C)[C@@H](Cc2ccccc2)C(=O)N[C@@H](CN)C(=O)N2CCC[C@@H]2C(=O)N[C@@H](Cc2c[nH]c3ccccc23)C(=O)N[C@@H](Cc2ccc(O)cc2)C(=O)N[C@@H](CC(C)C)C(=O)N[C@H](C(=O)NCC(N)=O)CSCC(=O)N[C@@H](Cc2ccccc2)C(=O)N(C)[C@@H](Cc2ccccc2)C(=O)N1C [Example 3191] ({CH2CO}-F[NMeF][NMeNle][dP]EV[NMeF][Dap][dP]WYLCG-NH2; thioether N-13)
- IC50 [1, 2]: 4.78 to 72.9 nM
- IC50 (Human PD-L1/PD-1): 0.385 to 6.74 nM

SMILES: CCCC[C@H]1C(=O)N2CCC[C@@H]2C(=O)N2C[C@H](N)C[C@H]2C(=O)N[C@@H](C(C)C)C(=O)N(C)[C@@H](Cc2ccccc2)C(=O)N[C@@H](Cc2ccc(O)cc2)C(=O)N2CC[C@@H]2C(=O)N[C@@H](Cc2c[nH]c3ccccc23)C(=O)N[C@@H](Cc2ccc(O)cc2)C(=O)N[C@@H](CC(C)C)C(=O)N[C@H](C(=O)NCC(N)=O)CSCC(=O)N[C@@H](Cc2cc(F)c(F)c(F)c2)C(=O)N(C)[C@@H](Cc2ccccc2)C(=O)N1C [Example 3192] ({CH2CO}-[Phe(3,4,5-F3)][NMeF][NMeNle][dP][Pro(4R-NH2)]V[NMeF]Y[dAze]WYLCG-NH2; thioether N-13)
- IC50 [1, 2]: 0.158 to 4.71 nM
- IC50 (Human PD-L1/PD-1): 0.385 to 6.74 nM

SMILES: CCCC[C@H]1C(=O)N2CCC[C@@H]2C(=O)N2C[C@H](N)C[C@H]2C(=O)N[C@@H](C(C)C)C(=O)N(C)[C@@H](Cc2ccccc2)C(=O)N[C@@H](Cc2ccc(O)cc2)C(=O)N2CCC[C@@H]2C(=O)N[C@@H](Cc2c[nH]c3ccccc23)C(=O)N[C@@H](Cc2ccc(O)cc2)C(=O)N[C@@H](CC(C)C)C(=O)N[C@H](C(=O)NCC(N)=O)CSCC(=O)N[C@@H](Cc2cc(F)c(F)c(F)c2)C(=O)N(C)[C@@H](Cc2ccccc2)C(=O)N1C [Example 3193] ({CH2CO}-[Phe(3,4,5-F3)][NMeF][NMeNle][dP][Pro(4R-NH2)]V[NMeF]Y[dP]WYLCG-NH2; thioether N-13)
- IC50 [1, 2]: 0.158 to 4.71 nM
- IC50 (Human PD-L1/PD-1): 0.385 to 6.74 nM

SMILES: CCCC[C@H]1C(=O)N2C[C@H](O)C[C@@H]2C(=O)N2C[C@H](N)C[C@H]2C(=O)N[C@@H](C(C)C)C(=O)N(C)[C@@H](Cc2ccccc2)C(=O)N[C@@H](Cc2ccc(O)cc2)C(=O)N2CC[C@@H]2C(=O)N[C@@H](Cc2c[nH]c3ccccc23)C(=O)N[C@@H](Cc2ccc(O)cc2)C(=O)N[C@@H](CC(C)C)C(=O)N[C@H](C(=O)NCC(N)=O)CSCC(=O)N[C@@H](Cc2cc(F)c(F)c(F)c2)C(=O)N(C)[C@@H](Cc2ccccc2)C(=O)N1C [Example 3195] ({CH2CO}-[Phe(3,4,5-F3)][NMeF][NMeNle][d(cisHyp)][Pro(4R-NH2)]V[NMeF]Y[dAze]WYLCG-NH2; thioether N-13)
- IC50 [1, 2]: 0.158 to 4.71 nM
- IC50 (Human PD-L1/PD-1): 0.385 to 6.74 nM

SMILES: CCCC[C@H]1C(=O)N2C[C@H](O)C[C@@H]2C(=O)N2C[C@H](N)C[C@H]2C(=O)N[C@@H](C(C)C)C(=O)N(C)[C@@H](Cc2ccccc2)C(=O)N[C@@H](Cc2ccc(O)cc2)C(=O)N2CCCC[C@@H]2C(=O)N[C@@H](Cc2c[nH]c3ccccc23)C(=O)N[C@@H](Cc2ccc(O)cc2)C(=O)N[C@@H](CC(C)C)C(=O)N[C@H](C(=O)NCC(N)=O)CSCC(=O)N[C@@H](Cc2cc(F)c(F)c(F)c2)C(=O)N(C)[C@@H](Cc2ccccc2)C(=O)N1C [Example 3196] ({CH2CO}-[Phe(3,4,5-F3)][NMeF][NMeNle][d(cisHyp)][Pro(4R-NH2)]V[NMeF]Y[dPip]WYLCG-NH2; thioether N-13)
- IC50 [1, 2]: 0.158 to 4.71 nM
- IC50 (Human PD-L1/PD-1): 0.385 to 6.74 nM

SMILES: CCCC[C@H]1C(=O)N2C[C@H](O)C[C@@H]2C(=O)N2C[C@H](N)C[C@H]2C(=O)N[C@@H](C(C)C)C(=O)N(C)[C@@H](Cc2ccccc2)C(=O)N[C@@H](Cc2ccc(O)cc2)C(=O)N(C)[C@H](CCC(=O)O)C(=O)N[C@@H](Cc2c[nH]c3ccccc23)C(=O)N[C@@H](Cc2ccc(O)cc2)C(=O)N[C@@H](CC(C)C)C(=O)N[C@H](C(=O)NCC(N)=O)CSCC(=O)N[C@@H](Cc2cc(F)c(F)c(F)c2)C(=O)N(C)[C@@H](Cc2ccccc2)C(=O)N1C [Example 3197] ({CH2CO}-[Phe(3,4,5-F3)][NMeF][NMeNle][d(cisHyp)][Pro(4R-NH2)]V[NMeF]Y[dNMeE]WYLCG-NH2; thioether N-13)
- IC50 [1, 2]: 0.158 to 4.71 nM
- IC50 (Human PD-L1/PD-1): 0.385 to 6.74 nM

SMILES: CCCC[C@H]1C(=O)N2CCC[C@@H]2C(=O)N[C@@H](CC(N)=O)C(=O)N[C@@H](C(C)C)C(=O)N(C)[C@@H](Cc2ccccc2)C(=O)N[C@@H](Cc2ccc(CN)cc2)C(=O)N2CCC[C@@H]2C(=O)N[C@@H](Cc2c[nH]c3ccccc23)C(=O)N[C@@H](Cc2ccc(O)cc2)C(=O)N[C@@H](CCCCN)C(=O)N[C@H](C(=O)NCC(N)=O)CSCC(=O)N[C@@H](Cc2cc(F)c(F)c(F)c2)C(=O)N(C)[C@@H](Cc2ccccc2)C(=O)N1C [Example 3198] ({CH2CO}-[Phe(3,4,5-F3)][NMeF][NMeNle][dP]NV[NMeF][Phe(4-CH2NH2)][dP]WYKCG-NH2; thioether N-13)
- IC50 [1, 2]: 0.158 to 4.71 nM
- IC50 (Human PD-L1/PD-1): 6.76 to 30.3 nM

SMILES: CCCC[C@H]1C(=O)N2CCC[C@@H]2C(=O)N[C@@H](CO)C(=O)N[C@@H](C(C)C)C(=O)N(C)[C@@H](Cc2ccccc2)C(=O)N[C@@H](Cc2ccc(CN)cc2)C(=O)N2CCC[C@@H]2C(=O)N[C@@H](Cc2c[nH]c3ccccc23)C(=O)N[C@@H](Cc2ccc(O)cc2)C(=O)N[C@@H](CCCCN)C(=O)N[C@H](C(=O)NCC(N)=O)CSCC(=O)N[C@@H](Cc2cc(F)c(F)c(F)c2)C(=O)N(C)[C@@H](Cc2ccccc2)C(=O)N1C [Example 3199] ({CH2CO}-[Phe(3,4,5-F3)][NMeF][NMeNle][dP]SV[NMeF][Phe(4-CH2NH2)][dP]WYKCG-NH2; thioether N-13)
- IC50 [1, 2]: 0.158 to 4.71 nM
- IC50 (Human PD-L1/PD-1): 6.76 to 30.3 nM

SMILES: CCCCC1C(=O)N[C@@H](CCC(=O)O)C(=O)N[C@@H](CC(=O)O)C(=O)N[C@@H](C(C)C)C(=O)N(C)[C@@H](Cc2ccccc2)C(=O)N[C@@H](Cc2ccc(O)cc2)C(=O)N(C)CC(=O)N[C@@H](Cc2c[nH]c3ccccc23)C(=O)N[C@@H](Cc2ccc(O)cc2)C(=O)N[C@@H](CC(C)C)C(=O)N[C@H](C(=O)NCC(N)=O)CSCC(=O)N[C@@H](Cc2ccccc2)C(=O)N(C)[C@@H](Cc2ccccc2)C(=O)N1C (some centres unmarked) [Example 3500] (HELM PEPTIDE1{[O=C(C[*:3])[*:2]].F.[meF].[CCCCC(C(=O)[*:2])N(C)[*:1]].E.D.V.[meF].Y.[Sar].W.Y.L.C.G.[am]}$PEPTIDE1,PEPTIDE1,1:R3-14:R3$$$V2.0)
- IC50 [1, 3]: > 74.3 nM
- IC50 (Human PD-L1/PD-1): > 30.5 nM

SMILES: CCCC[C@H]1C(=O)N(C)CC(=O)N[C@@H](CCCNC(=N)N)C(=O)N[C@@H](C(C)C)C(=O)N(C)[C@@H](Cc2ccccc2)C(=O)N[C@@H](Cc2ccc(O)cc2)C(=O)N(C)CC(=O)N[C@@H](Cc2c[nH]c3ccccc23)C(=O)N[C@@H](Cc2ccc(O)cc2)C(=O)N[C@@H](CC(C)C)C(=O)N[C@H](C(=O)NCC(N)=O)CSCC(=O)N[C@@H](Cc2ccccc2)C(=O)N(C)[C@@H](Cc2ccccc2)C(=O)N1C [Example 3501] (HELM PEPTIDE1{[O=C(C[*:3])[*:2]].F.[meF].[CCCC[C@@H](C(=O)[*:2])N(C)[*:1]].[Sar].R.V.[meF].Y.[Sar].W.Y.L.C.G.[am]}$PEPTIDE1,PEPTIDE1,1:R3-14:R3$$$V2.0)
- IC50 [1, 3]: 4.78 to 72.9 nM
- IC50 (Human PD-L1/PD-1): 6.76 to 30.3 nM

SMILES: CCCC[C@H]1C(=O)N(C)CC(=O)N[C@@H](CCC(=O)O)C(=O)N[C@@H](C(C)C)C(=O)N(C)[C@@H](Cc2ccccc2)C(=O)N[C@@H](Cc2ccc(O)cc2)C(=O)N(C)CC(=O)N[C@@H](Cc2c[nH]c3ccccc23)C(=O)N[C@@H](Cc2ccc(O)cc2)C(=O)N[C@@H](CC(C)C)C(=O)N[C@H](C(=O)NCC(N)=O)CSCC(=O)N[C@@H](Cc2ccccc2)C(=O)N(C)[C@@H](Cc2ccccc2)C(=O)N1C [Example 3502] (HELM PEPTIDE1{[O=C(C[*:3])[*:2]].F.[meF].[CCCC[C@@H](C(=O)[*:2])N(C)[*:1]].[Sar].E.V.[meF].Y.[Sar].W.Y.L.C.G.[am]}$PEPTIDE1,PEPTIDE1,1:R3-14:R3$$$V2.0)
- IC50 [1, 3]: 4.78 to 72.9 nM
- IC50 (Human PD-L1/PD-1): 6.76 to 30.3 nM
